From PMC6161027, “In Vitro Stimulation of Multidrug Resistance-Associated Protein 2 Function Is Not Reproduced In Vivo in Rats” (Pharmaceutics, 2018)
“And” between values parts separate entries of the source, which are not always exact repeats. Equal entries are not always repeated. “Also recorded” adds a separate entry of the source. Structures can show the parent of a compound that is named as a salt. Where two headings read alike, the source gives them in different places. Blank lines part the entries; values can stand above or below the compound they belong to.

Tests used:
[1] = set-up: method as in PMID 11457649, PMID 9521735; settings: humans, in presence of dapsone ref 22, 23; cited from earlier work
[2] = system: flurbiprofen metabolism in liver microsome; set-up: method as in PMID 11457649, PMID 9521735; settings: in presence of dapsone ref 22, 23; cited from earlier work
in vitro = settings: tissue homogenate
[3] = rat, in vivo
Mrp2 [4] = target: T1, Mrp2 (Rattus norvegicus, UniProt Q63120); assay: Biliary and renal secretion of endogenous CP-I and CP-III in bile duct cannulated rats before and after modulators; settings: for Bile Flow: cumulative volume / total collection time, mean ± SD, three animals; for Mrp2-mediated CP-I transport in vivo (biliary clearance, cumulative amount in bile) before and after treatment: bile duct cannulated rats
T1 sequence (Q63120 whole entry, the tested form may be a part): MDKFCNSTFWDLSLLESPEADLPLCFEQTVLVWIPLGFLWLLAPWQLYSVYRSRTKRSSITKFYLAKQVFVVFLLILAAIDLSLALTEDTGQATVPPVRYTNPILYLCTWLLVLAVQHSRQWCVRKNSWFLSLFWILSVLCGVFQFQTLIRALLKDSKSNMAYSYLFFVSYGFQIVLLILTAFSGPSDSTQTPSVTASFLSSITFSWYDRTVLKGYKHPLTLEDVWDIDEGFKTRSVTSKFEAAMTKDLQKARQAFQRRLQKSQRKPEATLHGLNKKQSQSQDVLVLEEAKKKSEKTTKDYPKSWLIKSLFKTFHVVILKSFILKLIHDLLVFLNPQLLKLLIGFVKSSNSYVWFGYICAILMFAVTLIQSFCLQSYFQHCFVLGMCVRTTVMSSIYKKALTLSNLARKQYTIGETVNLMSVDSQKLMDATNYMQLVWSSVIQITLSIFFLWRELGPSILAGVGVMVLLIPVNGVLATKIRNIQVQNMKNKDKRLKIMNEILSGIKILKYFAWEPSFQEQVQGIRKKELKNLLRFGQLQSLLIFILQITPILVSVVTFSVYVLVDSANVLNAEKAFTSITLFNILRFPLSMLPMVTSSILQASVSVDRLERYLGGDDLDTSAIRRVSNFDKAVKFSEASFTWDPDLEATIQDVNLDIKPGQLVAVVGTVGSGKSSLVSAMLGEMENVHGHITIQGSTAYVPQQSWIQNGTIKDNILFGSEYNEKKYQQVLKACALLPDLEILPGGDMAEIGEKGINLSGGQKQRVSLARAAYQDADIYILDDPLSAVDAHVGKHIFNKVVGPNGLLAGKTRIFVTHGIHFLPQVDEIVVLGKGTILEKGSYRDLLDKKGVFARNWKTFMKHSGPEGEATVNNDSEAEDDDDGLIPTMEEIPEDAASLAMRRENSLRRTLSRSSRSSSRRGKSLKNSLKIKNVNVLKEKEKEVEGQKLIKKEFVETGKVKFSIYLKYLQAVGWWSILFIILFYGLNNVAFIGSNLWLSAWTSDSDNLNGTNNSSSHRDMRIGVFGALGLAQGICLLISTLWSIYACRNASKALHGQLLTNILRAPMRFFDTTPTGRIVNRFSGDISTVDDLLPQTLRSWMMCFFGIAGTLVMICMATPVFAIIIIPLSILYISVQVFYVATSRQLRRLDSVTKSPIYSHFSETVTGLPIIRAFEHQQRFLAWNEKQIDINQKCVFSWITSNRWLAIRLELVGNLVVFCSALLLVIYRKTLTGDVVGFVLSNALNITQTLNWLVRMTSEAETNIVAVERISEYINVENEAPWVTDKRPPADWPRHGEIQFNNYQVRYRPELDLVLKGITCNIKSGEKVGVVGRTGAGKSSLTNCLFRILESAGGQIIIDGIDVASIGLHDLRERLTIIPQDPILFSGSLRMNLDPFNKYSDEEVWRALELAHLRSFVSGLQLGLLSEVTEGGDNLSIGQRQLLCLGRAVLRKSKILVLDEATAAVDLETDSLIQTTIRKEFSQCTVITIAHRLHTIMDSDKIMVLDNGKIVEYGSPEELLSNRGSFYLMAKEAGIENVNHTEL

[5] = Plasma and liver concentrations of modulators after i.v. infusion in rats; assay type: in vivo; settings: Sprague-Dawley, rat; for Kp at 3 h: liver at terminal time point (3 h); for Cmax: plasma, iv
rat Mrp2 [6] = target: T2, rat Mrp2 (Rattus norvegicus, UniProt Q63120); settings: for % Net decrease in ATP-dependent CP-I uptake in presence of bilirubin: bilirubin 10 µM, uptake with modulator alone as control, duplicate wells
T2 sequence (Q63120 whole entry): as the sequence (Q63120 whole entry, the tested form may be a part) above
Procedure: Figure 3 Effect of bilirubin on the transport of CP-I using rat Mrp2 vesicles in the presence and absence of modulators. Rat Mrp2 vesicles (50 µg/well) were preincubated with and without bilirubin (10 µM) and modulators for 3 min at 37 °C. % Net decrease in ATP-dependent CP-I uptake in presence of bilirubin was calculated by taking CP-I uptake values in presence of modulators as control. All data values presented as mean of single experiment performed in duplicate wells.

rat Mrp2 [7] = target: T2, rat Mrp2; settings: for effect on rat Mrp2-mediated CP-I transport in vitro: 15 min, result in words
Procedure: Rat Mrp2-mediated CP-I transport was measured in inside-out membrane vesicles. Mrp2 vesicle protein (50 µg/well) were preincubated with modulators at above reported concentrations at 37 °C and reaction was started by adding CP-I (5 µM) and incubated for 15 min. NP; not performed. For more on experimental details refer to Section 2.3. Dotted line represents basal level (100%) of CP-I uptake in control wells in the presence of ATP with no modulators added. All data values presented as mean and SD of single experiment performed in triplicate wells.

human MRP2 = settings: cited from earlier work; for stimulation of CP-I transport in human MRP2 vesicles / effect on MRP2 when CP-I is used as probe substrate: result in words ref 10
rat Mrp2 [8] = target: T2, rat Mrp2
Mrp2 [9] = target: T1, Mrp2; settings: in vivo
Mrp2 [10] = system: Mrp2; set-up: method as in PMID 19118132; settings: cited from earlier work
Mrp2 [11] = system: Mrp2; set-up: method as in PMID 27964938; settings: in the presence of metformin, plasma exposure not affected ref 9; cited from earlier work
Oatp = assay: CP-I uptake in suspended rat hepatocytes with and without rifamycin SV; assay type: cell-based; settings: rifamycin SV 1 mM, CP-I 0.5 µM, 37 °C, result in words
Mrp2 [12] = system: Mrp2; set-up: method as in PMID 15194559; settings: rats ref 17; cited from earlier work

Compound: Nc1ccc(S(=O)(=O)c2ccc(N)cc2)cc1 [dapsone]
- increase in flurbiprofen clearance [1]: 10%
- stimulation of flurbiprofen metabolism [2]: two-fold

Compound: O=C1c2c(O)ccc(O)c2C(=O)c2c(NCCNCCO)ccc(NCCNCCO)c21 [Mitoxantrone, Mitoxantrone hydrochloride]
- fraction unbound at 6 h, 10 µM (in vitro): 0.0003
- toxicity limiting the dose [3]: observed toxicity
- Bile Flow (Mrp2 [4]; after mitoxantrone 6 mg/kg i.v.): 1.05 ± 0.11 mL/h
- Bile Flow (Mrp2 [4]; after mitoxantrone 15 mg/kg i.v.): 1.38 ± 0.56 mL/h
- Mrp2-mediated CP-I transport in vivo (biliary clearance, cumulative amount in bile) before and after treatment (Mrp2 [4]; result in words): no significant difference
- biliary excretion of CP-I and III (Mrp2 [4]; mitoxantrone 6 mg/kg, between 0.25 and 0.5 h, result in words): significant increase
- biliary secretion of CP-I (Mrp2 [4]; mitoxantrone 15 mg/kg, from 0.33 to 1.25 h, result in words): decreased
- concentration at 3 h ([5]; intravenous, 6 mg/kg i.v., liver homogenate, LC-MS/MS, read-out: Liver Total Concentrations): 854 µM
- concentration at 3 h ([5]; intravenous, 15 mg/kg i.v., liver homogenate, LC-MS/MS, read-out: Liver Total Concentrations): 950 µM
- concentration at 3 h ([5]; liver (unbound), intravenous, 6 mg/kg i.v., Fu,liver x total liver concentration, read-out: Liver Unbound Concentrations): 0.26 µM
- Kp at 3 h ([5]; liver/plasma, intravenous, 6 mg/kg i.v., read-out: Liver to Plasma Ratio): 199
- Kp at 3 h ([5]; liver/plasma, intravenous, 15 mg/kg i.v., read-out: Liver to Plasma Ratio): 202
- Cmax ([5]; 6 mg/kg i.v.): 4.3 µM
- Cmax ([5]; 15 mg/kg i.v.): 4.7 µM
- % Net decrease in ATP-dependent CP-I uptake in presence of bilirubin (rat Mrp2 [6]; modulator 200 µM): 34% and 42%
- concentration from which in vitro stimulation started (rat Mrp2 [7]): ≥ 1 µM
- effect on rat Mrp2-mediated CP-I transport in vitro (rat Mrp2 [7]; CP-I 5 µM): strongest stimulator; also recorded: stimulated
- concentrations giving inhibition of Mrp2 mediated CP-I transport (rat Mrp2 [7]; bell-shaped curve, higher concentrations): > 250 µM
- concentrations giving stimulation of Mrp2 mediated CP-I transport (rat Mrp2 [7]; bell-shaped curve, lower concentrations): up to 250 µM
- stimulation of CP-I transport in human MRP2 vesicles (human MRP2): significant stimulation

- Km (rat Mrp2 [8]): 15 ± 6 µM
- apparent Vmax (rat Mrp2 [8]; CP-I uptake, rat Mrp2 membrane vesicles, 37 °C, 15 min, mean ± SD): 161 ± 20 pmol/min/mg protein
- ATP over AMP ratio of CP-I uptake (rat Mrp2 [8]; rat Mrp2 membrane vesicles): 23
- average biliary clearance relative to CP-III (Mrp2 [9]): four-fold higher
- basal level excreted in rat bile in 2 h (Mrp2 [9]): about 600 pmoles
Compound: coproporphyrin-I [CP-I]
- Km (human MRP2): 7.7 µM

- effect on in vitro stimulation of Mrp2-mediated CP-I transport (rat Mrp2 [6]; 10 µM, result in words): suppressed
Compound: C=CC1=C(C)/C(=C/c2[nH]c(Cc3[nH]c(/C=C4\NC(=O)C(C)=C4C=C)c(C)c3CCC(=O)O)c(CCC(=O)O)c2C)NC1=O [bilirubin]

Compound: COc1ccc2c(c1)c(CC(=O)O)c(C)n2C(=O)c1ccc(Cl)cc1 [indomethacin]
- decrease of E17βG half-life (Mrp2 [10]; rats ref 16): 40%
- effect on E17βG biliary clearance (Mrp2 [10]; rats, result in words ref 16): increases
- effect on MRP2 when CP-I is used as probe substrate (human MRP2): inhibitors

- fraction unbound at 6 h, 10 µM (in vitro): 0.0094
- Bile Flow (Mrp2 [4]; after progesterone 1 mg/kg i.v.): 1.62 ± 0.39 mL/h
- Mrp2-mediated CP-I transport in vivo (biliary clearance, cumulative amount in bile) before and after treatment (Mrp2 [4]; result in words): did not stimulate
- biliary secretion of CP-III (Mrp2 [4]; progesterone 1 mg/kg, from 0.17 to 1.5 h, result in words): significant decrease
- concentration at 2 h ([5]; intravenous, 1 mg/kg i.v., liver homogenate, LC-MS/MS, read-out: Liver Total Concentrations): 197 µM
- concentration at 2 h ([5]; liver (unbound), intravenous, 1 mg/kg i.v., Fu,liver x total liver concentration, read-out: Liver Unbound Concentrations): 1.86 µM
- Kp at 2 h ([5]; liver/plasma, intravenous, 1 mg/kg i.v., liver at terminal time point (2 h), read-out: Liver to Plasma Ratio): 1.2
- Cmax ([5]; 1 mg/kg i.v.): 165 µM
- % Net decrease in ATP-dependent CP-I uptake in presence of bilirubin (rat Mrp2 [6]; modulator 100 µM): 17% and 12%
- effect on rat Mrp2-mediated CP-I transport in vitro (rat Mrp2 [7]; CP-I 5 µM): stimulated
- stimulation of Mrp2 mediated transport of CP-I (rat Mrp2 [7]; modulator 1 µM, CP-I 5 µM): > 1.5 fold
Compound: CC(=O)[C@H]1CC[C@H]2[C@@H]3CCC4=CC(=O)CC[C@]4(C)[C@H]3CC[C@]12C [Progesterone, progesterone]
- stimulation of CP-I transport in human MRP2 vesicles (human MRP2): significant stimulation

Compound: CN(C)C(=N)N=C(N)N [metformin]
- increase of atorvastatin liver concentration (Mrp2 [11]): 1.64 fold

- effect on CP-I uptake in isolated rat hepatocytes (Oatp): rifamycin sensitive
Compound: CO[C@H]1/C=C/O[C@@]2(C)Oc3c(C)c(O)c4c(O)c(cc(O)c4c3C2=O)NC(=O)/C(C)=C\C=C\[C@H](C)[C@H](O)[C@@H](C)[C@@H](O)[C@@H](C)[C@H](OC(C)=O)[C@@H]1C [rifamycin, rifamycin SV]

Compound: CC1(C)S[C@@H]2[C@H](NC(=O)Cc3ccccc3)C(=O)N2[C@H]1C(=O)O [benzyl penicillin]
- transient enhancement of biliary clearance of glutathione (GSH) (Mrp2 [12]): about four-fold

Compound: CCc1oc2ccccc2c1C(=O)c1cc(Br)c(O)c(Br)c1 [benzbromarone]
- effect on MRP2 when CP-I is used as probe substrate (human MRP2): inhibitors

- urinary clearance relative to CP-I (Mrp2 [4]; control experiments): three-fold higher
- basal level excreted in rat bile in 2 h (Mrp2 [4]; endogenous, no modulator): ~1200 pmol
- plasma AUC (0–2 h), basal (Mrp2 [4]; endogenous, no modulator): ~9.5 nM·h
- basal plasma levels relative to CP-I (Mrp2 [4]; rats): three-four times higher
Compound: coproporphyrin-III [CP-III]
